This is an account of results in US11884649B2, “IRE1α inhibitors and uses thereof” (The Regents of the University of California, priority 2020, dated 2024).

The test system of data set [1] is RIDD (IRE1α-dependent mRNA decay). Briefly: RIDD (Blos1 mRNA) in ER-stressed INS-1 cells. Particulars: 2 mM DTT, 20 μM compound. It is filed as cell-based, rat. As for the experimental part: RNA Isolation, Quantitative Real-Time PCR, and Primers
INS-1 or isogenic IRE1α-overexpressing INS-1 cells were plated onto Poly-D-Lysine coated tissue culture plate and grown for 48 hrs. Inhibitors or DMSO were added to the media and incubated for 1 hour at 37° C. with 5% CO2 prior to addition of ER stress agents or Dox as indicated. RNA was isolated from whole cells using either QIAGEN RNeasy Mini kits or Trizol (Invitrogen) and reverse transcribed as above to obtain total cDNA. Then, XBP-1 primers were used to amplify an XBP-1 amplicon spanning the 26 nt intron from the cDNA samples in a regular 3-step PCR. Thermal cycles were: 5 min at 95° C., 30 cycles of 30 s at 95° C., 30 s at 60° C., and 1 min at 72° C., followed by 72° C. for 15 min, and hold at 4° C. Primers used for XBP-1 mRNA splicing were as follows: sense primer XBP1.3 S (5′ […]-3′ (SEQ ID NO:2)) and antisense primer XBP1.2AS (5′-[…]-3′ (SEQ ID NO:3)). PCR fragments were then digested by PstI, resolved on 3% agarose gels, stained with EtBr and quantified by densitometry using ImageJ (NIH). For standard mRNA detection, generally […] total RNA was reverse transcribed using the QuantiTect Reverse Transcription Kit (QIAGEN). For qPCR, we used SYBR green (QIAGEN) and StepOnePlus Real-Time PCR System (Applied Biosystems). Thermal cycles were: 5 min at 95° C., 40 cycles of 15 sec at 95° C., 30 sec at 60° C. […]

Data set [2] deals with XBP1 mRNA splicing / RIDD. Briefly: XBP1 splicing and Blos1 mRNA in LPS-treated splenocytes. The data set is classed as cell-based, mouse. As to conditions: LPS treatment.
The next data set concerns mouse splenocytes. Description: LPS-induced differentiation of mouse splenocytes into plasma cells (flow cytometry, IgM ELISA). The data set is classed as cell-based. Particulars: 1 μg/mL LPS, three days; for IgM secretion / plasma cell (CD138+) differentiation: 20 μM-1.25 μM. As for the experimental part:
Therefore, we sought to compare the sensitivity of this process to both KIRAs and PAIRs. To this end, we assessed how KIRA8, KIRA9, and PAIR1 affected the differentiation of lipopolysaccharide (LPS)-treated mouse splenocytes into antibody-secreting plasma cells. Total live number of CD19+ B-cells were assessed and plasma cells were quantified on the basis of B220 downregulation and CD138 expression by flow cytometry (FIGS. 6A-6C, FIG. 24). Concomitantly, secreted IgM was measured in the cell culture supernatants by ELISA (FIG. 6C).
Splenocyte Isolation and Differentiation
Red blood cells were lysed with ammonium chloride potassium buffer. Splenocytes were plated at 2.5×10^5 cells/well in a 96-well round bottom plate in complete media. The splenocytes were treated with or without 1 μg/ml LPS 026:b6 (Sigma). […] The splenocytes were incubated for three days in a 37° C., 5% CO2 humidified chamber before collection and staining for flow cytometry.
Cells from the plasma cell assay were collected in a 96-well plate and washed with PBS followed by staining with LIVE/DEAD Fixable Near-IR Dead Cell Stain kit (Invitrogen). Reagent was reconstituted as per manufacturer's instructions, diluted 1:1000 in PBS, and cells were stained in 100 μL on ice for 20 minutes. The cells were then washed with FACS buffer, PBS (Corning), 2 mM EDTA and 2% heat inactivated fetal bovine serum (Omega Scientific). The cells were then stained with 50 μL antibody cocktail consisting of anti-CD19 (BioLegend), anti-CD45R (BD Pharmingen), and anti-CD138 (BioLegend) in FACS buffer on ice for 15 minutes. Cells were resuspended in FACS buffer and combined with an equal volume of 4% paraformaldehyde with 5000 Countbright Absolute Counting Beads (Thermofisher). Stained cells were analyzed on a Fortessa (Becton Dickinson). Data analysis was performed using FlowJo (v10) software (Treestar Inc.).
Media supernatants from the in vitro plasma cell differentiation assay were measured for secreted IgM by ELISA. […] Wash buffer (PBS with 0.05% Tween-20 (v/v)) was used for all washing steps and blocked with PBS-BB (PBS without Ca^2+/Mg^2+, 1% BSA (w/v), 0.05% Tween-20 (v/v)). Supernatants from LPS stimulated samples were diluted (1:100) and media only samples were diluted (1:10) in PBS-BB. […] ELISA plates were developed with TMB (Sigma) and stopped with 1N sulfuric acid. Absorbance was measured at 450 nm using spectrophotometer (Spectramax M5, Molecular Devices). Sample IgM concentration values were calculated with SoftMaxPro software.

Regarding `O=S(=O)(CC(F)(F)F)Nc1ccc(Oc2ncccc2-c2ccnc(N[C@H]3CCCNC3)n2)c2ccccc12` (stereo in doubt) [PAIR1, 2,2,2-trifluoro-N-(4-(3-(2-(piperidin-3-ylamino)pyrimidin-4-yl)pyridin-2-yloxy)naphthalen-1-yl)ethanesulfonamide], the “RIDD (Blos1 mRNA)” value in data set [1] is “equivalently blunt RIDD”. Further, in data set [2], the “Blos1 mRNA decay” value is recorded as “significantly rescued” and the “XBP1 mRNA splicing” value was “reversed with KIRA9, but not with PAIR1”. Besides, in the data set with mouse splenocytes, the “overall number of B cells (CD19+), general toxicity” value is “neither PAIR1 nor KIRA9 reduced the overall number of B cells”; the IgM secretion result is listed as “more modest inhibition”; the “plasma cell (CD138+) differentiation” value was “more modest inhibition”.

Regarding `O=S(=O)(CCC(F)(F)F)Nc1ccc(Oc2ncccc2-c2ccnc(NC3CCCNC3)n2)c2ccccc12` (stereo not drawn) [KIRA9, 3,3,3-trifluoro-N-(4-(3-(2-(piperidin-3-ylamino)pyrimidin-4-yl)pyridin-2-yloxy)naphthalen-1-yl)propane-1-sulfonamide], the “RIDD (Blos1 mRNA)” value in data set [1] is “equivalently blunt RIDD”. In data set [2], the “Blos1 mRNA decay” value is “significantly rescued” and the “XBP1 mRNA splicing” value was “reversed”. Also, in the data set with mouse splenocytes, the “overall number of B cells (CD19+), general toxicity” value is reported as “neither PAIR1 nor KIRA9 reduced the overall number of B cells”; the IgM secretion result was “reductions in both plasma cell differentiation and IgM secretion in a dose-dependent manner”; the “plasma cell (CD138+) differentiation” value was “reductions in both plasma cell differentiation and IgM secretion in a dose-dependent manner”.
